Experimental data as given in ChEMBL document CHEMBL3991601, “The target landscape of clinical kinase drugs” (Science, 2017).
Activity calls are given as the source filed them.

How the values were obtained:
[1] = target: T1, Long-chain-fatty-acid--CoA ligase 5 (Homo sapiens, UniProt Q9ULC5)
T1 sequence (Q9ULC5 whole entry): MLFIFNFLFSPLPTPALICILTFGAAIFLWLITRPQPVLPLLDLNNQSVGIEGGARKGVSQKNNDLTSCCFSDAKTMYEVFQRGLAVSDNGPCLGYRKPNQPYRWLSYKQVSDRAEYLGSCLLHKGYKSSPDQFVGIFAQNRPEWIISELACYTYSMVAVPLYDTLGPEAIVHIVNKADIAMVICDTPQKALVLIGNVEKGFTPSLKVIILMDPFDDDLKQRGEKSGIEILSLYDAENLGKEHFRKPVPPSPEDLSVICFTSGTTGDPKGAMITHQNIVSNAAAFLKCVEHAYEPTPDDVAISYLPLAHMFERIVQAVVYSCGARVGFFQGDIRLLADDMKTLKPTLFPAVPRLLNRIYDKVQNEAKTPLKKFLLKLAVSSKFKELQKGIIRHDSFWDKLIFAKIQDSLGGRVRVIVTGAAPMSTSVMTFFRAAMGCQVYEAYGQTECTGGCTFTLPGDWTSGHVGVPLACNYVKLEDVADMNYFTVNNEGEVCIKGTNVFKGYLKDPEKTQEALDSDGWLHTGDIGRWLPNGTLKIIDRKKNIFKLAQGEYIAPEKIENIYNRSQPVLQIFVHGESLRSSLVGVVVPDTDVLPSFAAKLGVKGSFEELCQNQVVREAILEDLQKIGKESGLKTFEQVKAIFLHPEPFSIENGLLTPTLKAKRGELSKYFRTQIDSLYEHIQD

[2] = target: Uncharacterized aarF domain-containing protein kinase 5 (Homo sapiens, UniProt Q3MIX3)
[3] = target: T2, Ephrin type-A receptor 1 (Homo sapiens, UniProt P21709)
T2 sequence (P21709 whole entry): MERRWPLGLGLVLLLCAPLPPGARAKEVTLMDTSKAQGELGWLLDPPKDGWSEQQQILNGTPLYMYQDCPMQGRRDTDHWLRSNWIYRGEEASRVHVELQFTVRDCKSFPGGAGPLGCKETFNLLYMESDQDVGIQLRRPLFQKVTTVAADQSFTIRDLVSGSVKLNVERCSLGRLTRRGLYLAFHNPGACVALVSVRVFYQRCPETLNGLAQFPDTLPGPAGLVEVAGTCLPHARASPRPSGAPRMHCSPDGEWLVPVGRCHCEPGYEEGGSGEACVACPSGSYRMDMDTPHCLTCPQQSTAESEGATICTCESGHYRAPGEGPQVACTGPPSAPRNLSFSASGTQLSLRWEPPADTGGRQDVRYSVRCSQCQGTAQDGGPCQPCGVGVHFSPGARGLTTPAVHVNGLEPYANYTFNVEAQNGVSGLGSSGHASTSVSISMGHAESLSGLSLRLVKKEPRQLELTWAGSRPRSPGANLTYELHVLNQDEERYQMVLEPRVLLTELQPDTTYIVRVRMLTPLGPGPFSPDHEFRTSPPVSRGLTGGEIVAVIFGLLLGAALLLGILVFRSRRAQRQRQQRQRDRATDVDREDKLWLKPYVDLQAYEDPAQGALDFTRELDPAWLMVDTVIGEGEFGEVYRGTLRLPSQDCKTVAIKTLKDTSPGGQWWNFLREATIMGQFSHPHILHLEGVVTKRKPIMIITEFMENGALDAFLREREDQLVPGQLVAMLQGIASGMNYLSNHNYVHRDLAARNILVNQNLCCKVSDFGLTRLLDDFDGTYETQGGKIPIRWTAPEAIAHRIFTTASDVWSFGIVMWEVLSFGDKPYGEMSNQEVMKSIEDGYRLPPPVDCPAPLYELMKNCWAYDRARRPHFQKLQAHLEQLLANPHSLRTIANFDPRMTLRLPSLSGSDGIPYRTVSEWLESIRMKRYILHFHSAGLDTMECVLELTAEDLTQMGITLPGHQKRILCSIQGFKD

[4] = target: G protein-coupled receptor kinase 6 (Homo sapiens, UniProt P43250)
[5] = target: Mitogen-activated protein kinase 14 (Homo sapiens, UniProt Q16539)
[6] = target: High affinity nerve growth factor receptor (Homo sapiens, UniProt P04629)
[7] = target: PAS domain-containing serine/threonine-protein kinase (Homo sapiens, UniProt Q96RG2)
[8] = target: Serine/threonine-protein kinase N3 (Homo sapiens, UniProt Q6P5Z2)
[9] = target: Protein kinase C theta type (Homo sapiens, UniProt Q04759)
[10] = target: Serine/threonine-protein kinase 38-like (Homo sapiens, UniProt Q9Y2H1)
[11] = target: Dual specificity testis-specific protein kinase 1 (Homo sapiens, UniProt Q15569)
Also: in the data inactive means no Kd found up to 30 µM.

Chain of G protein-coupled receptor kinase 6 (P43250 whole entry): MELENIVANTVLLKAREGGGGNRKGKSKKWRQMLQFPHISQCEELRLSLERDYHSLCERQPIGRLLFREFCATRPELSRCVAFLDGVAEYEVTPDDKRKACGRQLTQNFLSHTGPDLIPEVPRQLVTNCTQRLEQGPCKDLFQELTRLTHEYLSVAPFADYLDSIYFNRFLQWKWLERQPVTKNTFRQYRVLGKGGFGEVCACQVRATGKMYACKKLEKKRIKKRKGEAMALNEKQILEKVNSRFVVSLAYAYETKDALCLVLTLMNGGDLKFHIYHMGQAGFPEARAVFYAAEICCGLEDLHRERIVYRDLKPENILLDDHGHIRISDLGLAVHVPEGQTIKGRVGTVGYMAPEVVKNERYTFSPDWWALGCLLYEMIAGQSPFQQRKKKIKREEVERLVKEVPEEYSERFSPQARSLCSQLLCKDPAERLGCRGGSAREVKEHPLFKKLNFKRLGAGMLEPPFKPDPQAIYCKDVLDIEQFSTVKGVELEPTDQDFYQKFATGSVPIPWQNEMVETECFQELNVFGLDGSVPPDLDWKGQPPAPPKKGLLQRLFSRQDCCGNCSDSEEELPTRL
Chain of PAS domain-containing serine/threonine-protein kinase (Q96RG2 whole entry, the tested form may be a part): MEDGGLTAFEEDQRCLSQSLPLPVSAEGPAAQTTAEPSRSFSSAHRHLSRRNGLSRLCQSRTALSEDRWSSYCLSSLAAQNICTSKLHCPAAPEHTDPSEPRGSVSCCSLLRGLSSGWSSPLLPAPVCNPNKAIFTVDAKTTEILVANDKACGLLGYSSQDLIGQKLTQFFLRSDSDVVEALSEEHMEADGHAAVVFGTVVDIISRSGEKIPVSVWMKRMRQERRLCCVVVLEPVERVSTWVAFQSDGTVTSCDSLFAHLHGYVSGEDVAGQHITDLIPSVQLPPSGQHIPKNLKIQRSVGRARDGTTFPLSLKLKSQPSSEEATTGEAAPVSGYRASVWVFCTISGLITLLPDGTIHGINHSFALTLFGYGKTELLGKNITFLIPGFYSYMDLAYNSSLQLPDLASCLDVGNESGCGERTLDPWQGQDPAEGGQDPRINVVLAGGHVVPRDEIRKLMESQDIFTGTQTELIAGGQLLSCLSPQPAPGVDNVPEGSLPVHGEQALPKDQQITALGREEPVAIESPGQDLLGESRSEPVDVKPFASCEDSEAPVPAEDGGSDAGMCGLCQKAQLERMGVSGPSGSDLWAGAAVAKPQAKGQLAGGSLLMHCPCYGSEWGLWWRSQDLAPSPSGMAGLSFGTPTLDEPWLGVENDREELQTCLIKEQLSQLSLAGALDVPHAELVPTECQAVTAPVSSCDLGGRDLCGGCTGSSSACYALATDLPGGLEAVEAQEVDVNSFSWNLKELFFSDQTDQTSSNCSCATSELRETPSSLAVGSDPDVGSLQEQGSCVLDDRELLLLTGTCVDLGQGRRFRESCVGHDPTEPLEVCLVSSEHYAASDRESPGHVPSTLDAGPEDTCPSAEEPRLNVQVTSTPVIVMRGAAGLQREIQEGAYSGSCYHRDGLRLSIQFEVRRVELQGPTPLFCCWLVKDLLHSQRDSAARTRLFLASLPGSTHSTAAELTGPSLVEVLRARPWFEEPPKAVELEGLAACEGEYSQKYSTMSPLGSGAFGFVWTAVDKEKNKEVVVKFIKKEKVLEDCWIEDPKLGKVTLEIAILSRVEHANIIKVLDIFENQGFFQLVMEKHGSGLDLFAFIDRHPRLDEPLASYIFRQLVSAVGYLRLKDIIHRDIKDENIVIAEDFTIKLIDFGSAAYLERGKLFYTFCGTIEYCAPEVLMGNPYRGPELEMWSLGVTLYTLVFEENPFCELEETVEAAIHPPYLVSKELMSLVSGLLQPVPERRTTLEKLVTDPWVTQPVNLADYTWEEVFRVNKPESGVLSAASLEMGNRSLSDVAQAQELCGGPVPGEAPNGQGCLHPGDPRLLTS
Chain of Serine/threonine-protein kinase 38-like (Q9Y2H1 whole entry): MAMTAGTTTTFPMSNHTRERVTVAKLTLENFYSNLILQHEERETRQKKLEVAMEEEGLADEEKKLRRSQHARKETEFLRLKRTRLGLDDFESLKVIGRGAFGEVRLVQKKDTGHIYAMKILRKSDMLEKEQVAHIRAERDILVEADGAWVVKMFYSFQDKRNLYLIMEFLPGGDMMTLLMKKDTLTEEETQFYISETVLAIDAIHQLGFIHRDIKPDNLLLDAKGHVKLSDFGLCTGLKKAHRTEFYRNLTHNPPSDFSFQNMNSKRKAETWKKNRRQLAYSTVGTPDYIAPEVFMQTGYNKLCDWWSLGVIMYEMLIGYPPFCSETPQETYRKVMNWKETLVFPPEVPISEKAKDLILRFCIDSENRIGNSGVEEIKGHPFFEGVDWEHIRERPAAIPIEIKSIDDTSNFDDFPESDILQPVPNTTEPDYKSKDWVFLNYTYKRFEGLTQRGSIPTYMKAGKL
Chain of Mitogen-activated protein kinase 14 (Q16539 whole entry): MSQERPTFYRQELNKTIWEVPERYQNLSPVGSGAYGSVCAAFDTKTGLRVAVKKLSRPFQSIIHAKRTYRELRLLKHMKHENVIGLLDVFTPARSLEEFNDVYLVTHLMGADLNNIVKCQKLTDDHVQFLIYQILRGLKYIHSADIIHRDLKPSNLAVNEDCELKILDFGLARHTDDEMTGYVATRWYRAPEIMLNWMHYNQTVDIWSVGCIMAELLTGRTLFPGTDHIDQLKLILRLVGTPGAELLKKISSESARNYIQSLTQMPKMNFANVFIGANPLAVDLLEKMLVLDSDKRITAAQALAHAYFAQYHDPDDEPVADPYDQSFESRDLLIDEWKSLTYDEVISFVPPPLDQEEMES
Chain of Uncharacterized aarF domain-containing protein kinase 5 (Q3MIX3 whole entry, the tested form may be a part): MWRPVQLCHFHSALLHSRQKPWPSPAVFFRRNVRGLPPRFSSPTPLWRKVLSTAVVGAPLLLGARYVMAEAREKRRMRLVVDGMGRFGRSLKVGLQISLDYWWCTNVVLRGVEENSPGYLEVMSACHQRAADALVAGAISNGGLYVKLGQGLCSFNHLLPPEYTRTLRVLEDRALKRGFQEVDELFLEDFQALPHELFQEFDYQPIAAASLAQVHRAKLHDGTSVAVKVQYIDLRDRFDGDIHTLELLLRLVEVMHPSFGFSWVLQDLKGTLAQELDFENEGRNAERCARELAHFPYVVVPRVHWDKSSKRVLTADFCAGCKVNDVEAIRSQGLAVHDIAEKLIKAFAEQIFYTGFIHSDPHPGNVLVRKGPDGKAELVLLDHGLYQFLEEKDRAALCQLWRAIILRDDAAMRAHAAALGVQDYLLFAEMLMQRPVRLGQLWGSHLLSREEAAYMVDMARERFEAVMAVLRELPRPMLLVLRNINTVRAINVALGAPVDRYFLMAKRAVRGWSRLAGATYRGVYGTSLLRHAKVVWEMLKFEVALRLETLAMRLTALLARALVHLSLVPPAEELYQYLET
Chain of Protein kinase C theta type (Q04759 whole entry): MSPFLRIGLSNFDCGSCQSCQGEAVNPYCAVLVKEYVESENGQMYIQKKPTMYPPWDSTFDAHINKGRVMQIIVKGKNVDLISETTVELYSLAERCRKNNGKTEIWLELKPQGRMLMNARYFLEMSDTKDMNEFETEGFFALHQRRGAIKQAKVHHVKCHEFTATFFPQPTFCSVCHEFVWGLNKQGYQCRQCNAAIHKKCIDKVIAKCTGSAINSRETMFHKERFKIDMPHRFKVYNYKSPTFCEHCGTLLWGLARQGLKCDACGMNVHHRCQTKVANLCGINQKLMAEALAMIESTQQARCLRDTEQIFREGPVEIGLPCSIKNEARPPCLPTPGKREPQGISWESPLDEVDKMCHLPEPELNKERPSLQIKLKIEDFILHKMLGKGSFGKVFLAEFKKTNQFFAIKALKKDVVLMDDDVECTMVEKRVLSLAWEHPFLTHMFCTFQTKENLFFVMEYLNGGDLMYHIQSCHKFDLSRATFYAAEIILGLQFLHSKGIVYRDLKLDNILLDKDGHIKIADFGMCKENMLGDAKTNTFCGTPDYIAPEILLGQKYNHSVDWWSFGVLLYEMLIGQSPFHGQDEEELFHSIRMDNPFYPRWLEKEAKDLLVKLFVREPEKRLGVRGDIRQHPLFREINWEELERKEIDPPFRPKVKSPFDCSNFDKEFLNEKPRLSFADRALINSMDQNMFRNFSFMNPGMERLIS
Chain of Dual specificity testis-specific protein kinase 1 (Q15569 whole entry): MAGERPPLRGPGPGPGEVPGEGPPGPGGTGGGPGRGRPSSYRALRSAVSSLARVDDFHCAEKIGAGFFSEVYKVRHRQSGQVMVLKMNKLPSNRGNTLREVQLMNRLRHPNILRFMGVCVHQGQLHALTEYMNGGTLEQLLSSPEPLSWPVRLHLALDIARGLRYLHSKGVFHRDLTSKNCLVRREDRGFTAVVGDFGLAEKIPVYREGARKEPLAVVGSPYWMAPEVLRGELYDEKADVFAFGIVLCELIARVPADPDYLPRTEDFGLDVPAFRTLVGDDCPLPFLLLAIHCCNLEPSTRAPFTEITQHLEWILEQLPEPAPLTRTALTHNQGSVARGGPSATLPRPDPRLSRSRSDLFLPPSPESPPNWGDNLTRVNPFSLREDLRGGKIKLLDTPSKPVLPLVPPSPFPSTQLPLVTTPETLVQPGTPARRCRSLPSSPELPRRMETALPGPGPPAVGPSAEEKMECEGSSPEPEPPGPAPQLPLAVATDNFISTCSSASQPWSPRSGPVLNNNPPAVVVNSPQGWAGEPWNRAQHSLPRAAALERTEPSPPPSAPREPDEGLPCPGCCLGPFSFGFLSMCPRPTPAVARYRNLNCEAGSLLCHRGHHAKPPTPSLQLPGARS

Kd [1] | Kd [2] | Kd [3] | Kd [4] | Kd [5] | Kd [6] | Kd [7] | Kd [8] | Kd [9] | Kd [10] | Kd [11] | SMILES
> 30 µM (inactive) | > 30 µM (inactive) | > 30 µM (inactive) | > 30 µM (inactive) | > 30 µM (inactive) | > 30 µM (inactive) | > 30 µM (inactive) | > 30 µM (inactive) | > 30 µM (inactive) | > 30 µM (inactive) | > 30 µM (inactive) | Cc1cc([C@@H](C)Nc2ccccc2C(=O)O)c2nc(N3CCOCC3)cc(=O)n2c1 [AZD-6482]
> 30 µM (inactive) | > 30 µM (inactive) | > 30 µM (inactive) | > 30 µM (inactive) | > 30 µM (inactive) | – | > 30 µM (inactive) | – | > 30 µM (inactive) | > 30 µM (inactive) | > 30 µM (inactive) | CCS(=O)(=O)N1CC(CC#N)(n2cc(-c3ncnc4[nH]ccc34)cn2)C1 [BARICITINIB]
> 30 µM (inactive) | > 30 µM (inactive) | > 30 µM (inactive) | > 30 µM (inactive) | > 30 µM (inactive) | > 30 µM (inactive) | – | > 30 µM (inactive) | > 30 µM (inactive) | > 30 µM (inactive) | – | CCCS(=O)(=O)Nc1ccc(F)c(C(=O)c2c[nH]c3ncc(-c4ccc(Cl)cc4)cc23)c1F [VEMURAFENIB]
> 30 µM (inactive) | > 30 µM (inactive) | > 30 µM (inactive) | > 30 µM (inactive) | 0.217 µM (active) | – | > 30 µM (inactive) | > 30 µM (inactive) | > 30 µM (inactive) | > 30 µM (inactive) | > 30 µM (inactive) | COc1cc2nccc(Oc3ccc(NC(=O)NC4CC4)c(Cl)c3)c2cc1C(N)=O [LENVATINIB]
> 30 µM (inactive) | > 30 µM (inactive) | > 30 µM (inactive) | > 30 µM (inactive) | > 30 µM (inactive) | > 30 µM (inactive) | > 30 µM (inactive) | > 30 µM (inactive) | > 30 µM (inactive) | > 30 µM (inactive) | > 30 µM (inactive) | Cc1cc2c(F)c(Oc3ncnn4cc(OC[C@@H](C)OC(=O)[C@H](C)N)c(C)c34)ccc2[nH]1 [BRIVANIB ALANINATE]
> 30 µM (inactive) | > 30 µM (inactive) | > 30 µM (inactive) | > 30 µM (inactive) | > 30 µM (inactive) | > 30 µM (inactive) | > 30 µM (inactive) | – | > 30 µM (inactive) | > 30 µM (inactive) | > 30 µM (inactive) | CCN1CCN(Cc2ccc(-c3cc4c(N[C@H](C)c5ccccc5)ncnc4[nH]3)cc2)CC1 [AEE-788]
> 30 µM (inactive) | > 30 µM (inactive) | > 30 µM (inactive) | > 30 µM (inactive) | > 30 µM (inactive) | > 30 µM (inactive) | > 30 µM (inactive) | > 30 µM (inactive) | > 30 µM (inactive) | > 30 µM (inactive) | > 30 µM (inactive) | CC[C@H](Nc1ncnc2[nH]cnc12)c1nc2cccc(F)c2c(=O)n1-c1ccccc1 [IDELALISIB]
> 30 µM (inactive) | > 30 µM (inactive) | 0.015 µM | > 30 µM (inactive) | > 30 µM (inactive) | > 30 µM (inactive) | > 30 µM (inactive) | > 30 µM (inactive) | > 30 µM (inactive) | > 30 µM (inactive) | > 30 µM (inactive) | CNC(=O)CN1CCC(Oc2cc3c(Nc4cccc(Cl)c4F)ncnc3cc2OC)CC1 [SAPITINIB]
> 30 µM (inactive) | > 30 µM (inactive) | > 30 µM (inactive) | > 30 µM (inactive) | – | – | > 30 µM (inactive) | > 30 µM (inactive) | – | > 30 µM (inactive) | > 30 µM (inactive) | CCc1cnn2c(NCc3ccc[n+]([O-])c3)cc(N3CCCC[C@H]3CCO)nc12 [DINACICLIB]
> 30 µM (inactive) | > 30 µM (inactive) | > 30 µM (inactive) | > 30 µM (inactive) | > 30 µM (inactive) | > 30 µM (inactive) | > 30 µM (inactive) | > 30 µM (inactive) | > 30 µM (inactive) | > 30 µM (inactive) | > 30 µM (inactive) | CC[C@@H]1C(=O)N(C)c2cnc(Nc3ccc(C(=O)N[C@H]4CC[C@H](N5CCN(CC6CC6)CC5)CC4)cc3OC)nc2N1C(C)C [VOLASERTIB]
> 30 µM (inactive) | > 30 µM (inactive) | > 30 µM (inactive) | > 30 µM (inactive) | – | > 30 µM (inactive) | > 30 µM (inactive) | > 30 µM (inactive) | > 30 µM (inactive) | > 30 µM (inactive) | > 30 µM (inactive) | C[C@@H]1CN(Cc2ccc(F)cc2)[C@@H](C)CN1C(=O)c1cc2c(C(=O)C(=O)N(C)C)cn(C)c2cc1Cl [TALMAPIMOD]
> 30 µM (inactive) | > 30 µM (inactive) | > 30 µM (inactive) | > 30 µM (inactive) | > 30 µM (inactive) | – | > 30 µM (inactive) | > 30 µM (inactive) | > 30 µM (inactive) | > 30 µM (inactive) | > 30 µM (inactive) | COc1cc2nccc(Oc3ccc(NC(=O)Nc4cc(C)on4)c(Cl)c3)c2cc1OC [TIVOZANIB]
> 30 µM (inactive) | > 30 µM (inactive) | > 30 µM (inactive) | > 30 µM (inactive) | 0.536 µM (active) | > 30 µM (inactive) | > 30 µM (inactive) | > 30 µM (inactive) | > 30 µM (inactive) | > 30 µM (inactive) | > 30 µM (inactive) | Cc1ccc(NC(=O)c2ccc(CN3CC[C@H](N(C)C)C3)c(C(F)(F)F)c2)cc1Nc1nccc(-c2cncnc2)n1 [BAFETINIB]

SMILES | Kd [1] | Kd [2] | Kd [3] | Kd [4] | Kd [5] | Kd [6] | Kd [7] | Kd [8] | Kd [9] | Kd [10] | Kd [11]
CN1CCC(COc2cnc(-c3cccc(Cn4nc(-c5cccc(C#N)c5)ccc4=O)c3)nc2)CC1 [TEPOTINIB] | > 30 µM (inactive) | > 30 µM (inactive) | > 30 µM (inactive) | > 30 µM (inactive) | – | > 30 µM (inactive) | > 30 µM (inactive) | – | > 30 µM (inactive) | > 30 µM (inactive) | > 30 µM (inactive)
